Values after ≈ are worked out from the molar mass of the structure shown.

One compound from paper PMC12408343, “Deep learning reveals antibiotics in the archaeal proteome” (Nature Microbiology, 2025) can be followed below.

Assay [1] deals with S. aureus ATCC BAA-1556 (MRSA). The experiment in a line: microbe, parasite or virus in culture. The settings on record: 24 h. The method, then:
(§1) Briefly, 10^5 bacterial cells were incubated with serially diluted EPs (0–64 μmol l^−1) at 37 °C. Bacterial growth was assessed by measuring the optical density at 600 nm in a microplate reader at 1 day post-treatment. […] Secondary structure fractions were calculated using the BeStSel server. fH and fβ stand for helical and β fractions, respectively.

Assay [2] has as its system E. coli AIC222 (colistin-resistant, CRE). In words: microbe, parasite or virus in culture. The settings on record: 24 h. Here is the method:
as §1

A further assay concerns E. coli ATCC 11775. The experiment in a line: microbe, parasite or virus in culture. Here is the method: as §1
The next assay relates to P. aeruginosa PA14. In words: microbe, parasite or virus in culture. The method, then:
as §1

A further assay has as its system K. pneumoniae ATCC 13883. In words: microbe, parasite or virus in culture. Here is the method: as §1
The test system of assay [3] is E. faecium ATCC 700221 (VRE). The experiment in a line: microbe, parasite or virus in culture. The settings on record: 24 h. Here is the method:
as §1

For assay [4], the system named is A. baumannii ATCC 19606. In words: microbe, parasite or virus in culture. Here is the method:
as §1

For the next assay, the system named is S. aureus ATCC 12600. The experiment in a line: microbe, parasite or virus in culture. Here is the method: as §1
In assay [5] the test system is E. faecalis ATCC 700802 (VRE). The experiment in a line: Broth microdilution MIC. Type of assay: cell-based, Enterococcus faecalis. The settings on record: vancomycin-resistant strain, LB, 1–64 μmol l^−1 two-fold dilutions, 24 h, 37 °C, OD600, mode of three independent replicates. Here is the method:
as §1
In general terms: Broth dilution looks for growth in wells or tubes with falling amounts of substance.

The test system of a further assay is E. coli AIC221. The experiment in a line: microbe, parasite or virus in culture. Here is the method: as §1
The subject of assay [6] is A. baumannii ATCC 19606. The experiment in a line: Neutropenic deep thigh infection mouse model. Type of assay: in vivo. The settings on record: neutropenic female CD-1 mice, n = 6, single intraperitoneal dose 2 h after infection. Here is the method: The limit of detection (LOD) for the CFU quantification is log10CFU = 2. Statistical significance in panels b and d was determined using one-way analysis of variance followed by Dunnett’s test; P values are shown in the graphs. In the violin, the centre line represents […], the box limits the 1st and 3rd quartiles, and the whiskers (minimum and maximum) represent 1.5× the interquartile range. The solid line inside each box represents […] value obtained for each group. Panels a and c created with BioRender.com. Source data
Next, we assessed the efficacy of the same lead archaeasins (archaeasin-2, archaeasin-17 and archaeasin-73) in a murine deep thigh infection model (Fig. 5c), which is widely used to assess the antibiotic potential of compounds. Mice were administered 2 rounds of cyclophosphamide treatment for immunosuppression before the intramuscular infection with 1 × 10^5 cells in 100 μl of A. baumannii. A single dose of each archaeasin (at their MIC) was delivered intraperitoneally (Fig. 5c). […] Four days post-treatment, the bacterial counts remained stable for all peptide treatment conditions and the treatments with polymyxin B and levofloxacin, while the untreated control increased by two orders of magnitude. […]

A further assay deals with P. aeruginosa PAO1. In words: microbe, parasite or virus in culture. The method, then:
as §1

The mark [7] stands for this setting: broth microdilution, LB, 1–64 μmol l^−1 two-fold dilutions, 24 h, 37 °C, OD600, mode of three independent replicates.

For `C[C@H]1COc2c(N3CCN(C)CC3)c(F)cc3c(=O)c(C(=O)O)cn1c23` [Levofloxacin, reference compound], the MIC in assay [1] (Staphylococcus aureus, ATCCBAA1556|MRSA, read-out: MIC S. aureus ATCC BAA-1556 – MRSA (+)) is 32 µM (≈ 11.6 µg/mL); in assay [2] (Escherichia coli, read-out: MIC E. coli AIC222 – CRE (−)), 0.25 µM (≈ 0.0903 µg/mL); with E. coli ATCC 11775 (Escherichia coli, ATCC11775, 24 h, read-out: MIC E. coli ATCC 11775 (−)) it was 0.125 µM (≈ 0.0452 µg/mL); in the assay with P. aeruginosa PA14 (Pseudomonas aeruginosa, PA14, 24 h, read-out: MIC P. aeruginosa PA14 (−)), 0.5 µM (≈ 0.181 µg/mL); in the assay on K. pneumoniae ATCC 13883 (Klebsiella pneumoniae, ATCC13883, 24 h, read-out: MIC K. pneumoniae ATCC 13883 (−)), 1 µM (≈ 0.361 µg/mL); in assay [3] (Enterococcus faecium, ATCC700221|VRE, read-out: MIC E. faecium ATCC 700221 – VRE (+)) it was 16 µM (≈ 5.78 µg/mL). For the same compound, the MIC in the assay on A. baumannii ATCC 19606 [4] (Acinetobacter baumannii, ATCC19606, 24 h, read-out: MIC A. baumannii ATCC 19606 (−)) stood at 1 µM (≈ 0.361 µg/mL); with S. aureus ATCC 12600 (Staphylococcus aureus, ATCC12600, 24 h, read-out: MIC S. aureus ATCC 12600 (+)) it was 2 µM (≈ 0.723 µg/mL); in [5] (Enterococcus faecalis) it was 2 µM (≈ 0.723 µg/mL); in the assay with E. coli AIC221 (Escherichia coli, AIC221, 24 h, read-out: MIC E. coli AIC221 (−)), 0.125 µM (≈ 0.0452 µg/mL); with P. aeruginosa PAO1 (Pseudomonas aeruginosa, PAO1, 24 h, read-out: MIC P. aeruginosa PAO1 (−)), 4 µM (≈ 1.45 µg/mL). In assay [1] (methicillin-resistant strain, broth microdilution, LB, 1–64 μmol l^−1 two-fold dilutions, 37 °C, OD600, mode of three independent replicates), the “MIC S. aureus ATCC BAA-1556 – MRSA (+)” value turned out to be 32 µM (≈ 11.6 µg/mL). Also, in assay [2] (colistin-resistant strain, broth microdilution, LB, 1–64 μmol l^−1 two-fold dilutions, 37 °C, OD600, mode of three independent replicates), the “MIC E. coli AIC222 – CRE (−)” value was 0.25 µM (≈ 0.0903 µg/mL). Also, in the assay on E. coli ATCC 11775 (setting [7]), the “MIC E. coli ATCC 11775 (−)” value is 0.125 µM (≈ 0.0452 µg/mL). Besides, in the assay on P. aeruginosa PA14 (setting [7]), the “MIC P. aeruginosa PA14 (−)” value turned out to be 0.5 µM (≈ 0.181 µg/mL). Besides, the “MIC K. pneumoniae ATCC 13883 (−)” value in the assay with K. pneumoniae ATCC 13883 (setting [7]) worked out at 1 µM (≈ 0.361 µg/mL). Further, in assay [3] (vancomycin-resistant strain, broth microdilution, LB, 1–64 μmol l^−1 two-fold dilutions, 37 °C, OD600, mode of three independent replicates), the “MIC E. faecium ATCC 700221 – VRE (+)” value was 16 µM (≈ 5.78 µg/mL). In addition, the “MIC A. baumannii ATCC 19606 (−)” value against A. baumannii ATCC 19606 [4] (setting [7]) turned out to be 1 µM (≈ 0.361 µg/mL). Also, in the assay with S. aureus ATCC 12600 (setting [7]), the “MIC S. aureus ATCC 12600 (+)” value was determined as 2 µM (≈ 0.723 µg/mL). In addition, the “MIC E. faecalis ATCC 700802 – VRE (+)” value in [5] stood at 2 µM (≈ 0.723 µg/mL). Further, the “MIC E. coli AIC221 (−)” value against E. coli AIC221 (setting [7]) came to 0.125 µM (≈ 0.0452 µg/mL). Further, the “reduction of bacterial load, deep thigh infection, four days post-treatment” value with A. baumannii ATCC 19606 [6] is listed as “three”. In addition, the “MIC P. aeruginosa PAO1 (−)” value in the assay on P. aeruginosa PAO1 (setting [7]) was 4 µM (≈ 1.45 µg/mL).
